Tests used:
luciferase = luciferase (Photinus pyralis, UniProt P08659); experiment: Evaluation of substrate specificity for luciferase (luminescence on dispensing the substrate); type: biochemical; settings: for Substrate specificity (S) for luciferase, relative to that of ATP: amount of luminescence per unit concentration, substrate specificity of ATP normalized as 1
Protocol: In respect to the nucleic acid substrates synthesized, whether or not the substrates became a substrate for luciferase was evaluated by the following procedure. First, a luminescence reagent designated in Condition 1 of Table 1 was prepared.
Next, a reaction solution was prepared using 20 μL of this luminescence reagent, and 0.2 μL of a nucleic acid substrate of evaluation subject was injected. Then, luminescence emitted at this occasion was estimated. FIG. 6 is a graph showing the amount of luminescence when ATP, dATP, C^7dATP, and dATPαS are each dispensed as a substrate. The abscissa (C) indicates a final concentration of the compound in a reaction reagent. For example, when 0.2 μl of 1 μM substrate is dispensed, the final concentration is about 0.01 μM. An amount of luminescence (U) indicated in the ordinate was plotted by normalizing the amount of luminescence at 0.01 μM of ATP as 1. From this graph, the amount of luminescence (U) is found to be proportional to the final concentration (C). Because of this, as a substrate specificity (or substrate reactivity) for luciferase, the value (S) indicating the amount of luminescence per unit concentration is defined as described below. Substrate specificity (S)≡Amount of luminescence (U)/Final concentration (C)[μM]×0.01 (In this Definition, the Substrate Specificity of ATP is Normalized as 1).
The four points designated in the left side of the graph indicate each substrate specificity (S) of ATP, dATP, dATPαS, and C^7dATP. For a sequencing method using a stepwise chemical reaction represented by pyrosequencing, the amount of ATP generated from pyrophosphate produced in elongation of one nucleotide is equivalent to the amount of a target present in a reaction solution when all of the targets have been elongated. In addition, elongation of a plurality of nucleotides causes the amount to be multiplied by the number of the nucleotides. Generally speaking, the amount of a nucleic acid substrate which should be dispensed per reaction for sequencing requires about 100 times the amount of the target for analysis. This is because a sequenced region may sometimes contain about 10 consecutive identical nucleotides; and a reaction solution for this sequencing method has a substrate-degrading enzyme together, so that the nucleic acid elongation and substrate degradation are competed. Shortage of the substrates causes incomplete elongation, so that the following sequence analysis cannot be carried out. […] As a countermeasure against it, the substrate having about 100 times the target amount which has been generally used is preferably dispensed per reaction.
In this Example, the synthesized nucleic acid substrates were purified by liquid chromatography. However, removal of pyrophosphate that had been incorporated during the synthesis may be insufficiently carried out only by liquid chromatography-mediated purification. At that occasion, the present inventors treated the synthesized nucleic acid substrates by a pyrophosphate-degrading enzyme (PPase) to decompose the pyrophosphate. Specifically, the synthesized nucleic acid substrate was diluted in a reaction solution (100 mM Tris-Acetate, 0.5 mM EDTA, 5 mM Mg-Acetate, 1 mM DTT, pH 7.5) at a concentration of 500 μM. Then, PPase was added at 0.2 mU/μL, and the mixture was reacted at 30° C. for 30 minutes, which caused degradation of pyrophosphate in the solution. This method represents one example. […]

Sequence S1 = experiment: Sequence analysis by stepwise chemical reaction (pyrogram), ATP sulfurylase system, Condition 3; type: biochemical; settings: Sequence S1 (maximum two consecutive nucleotides); final concentration 2 μM
Protocol: Next, by using the developed substrates, nucleotide sequences were analyzed. FIG. 15 is pyrograms showing the results of sequence analysis using synthetic nucleotide A3d as a substitute for dATP in a sequencing method using a stepwise chemical reaction. The analyzed oligo Sequence S1 and a primer […] are described below.
Of note is that the Sequence P2 represents a primer sequence. This primer can complementarily bind to the underlined portion of the above Sequence S1. In addition, reagent conditions used for the sequence analysis were designated in Condition 3 of Table 1.
At the bottom of each diagram, the injected nucleic acid substrate species (the injected nucleotide type) were designated. Among the species, the substrate represented by “A” is A3d in (1) and dATPαS in (2), respectively. Also, at the top, nucleotide types which were incorporated in this oligo were designated. Specifically, the nucleotide types represent a complementary strand sequence that is an upstream sequence of the portion (the underlined portion of the Sequence S1) which complementarily binds to the primer P2. […] In addition, the broken lines represent standard values which convert the amount of the resulting luminescence into the number of nucleotides. For example, with regard to the above “CC”, the amount of luminescence equivalent to two nucleotides was observed. […]

Chain of luciferase (P08659 whole entry, species assumed): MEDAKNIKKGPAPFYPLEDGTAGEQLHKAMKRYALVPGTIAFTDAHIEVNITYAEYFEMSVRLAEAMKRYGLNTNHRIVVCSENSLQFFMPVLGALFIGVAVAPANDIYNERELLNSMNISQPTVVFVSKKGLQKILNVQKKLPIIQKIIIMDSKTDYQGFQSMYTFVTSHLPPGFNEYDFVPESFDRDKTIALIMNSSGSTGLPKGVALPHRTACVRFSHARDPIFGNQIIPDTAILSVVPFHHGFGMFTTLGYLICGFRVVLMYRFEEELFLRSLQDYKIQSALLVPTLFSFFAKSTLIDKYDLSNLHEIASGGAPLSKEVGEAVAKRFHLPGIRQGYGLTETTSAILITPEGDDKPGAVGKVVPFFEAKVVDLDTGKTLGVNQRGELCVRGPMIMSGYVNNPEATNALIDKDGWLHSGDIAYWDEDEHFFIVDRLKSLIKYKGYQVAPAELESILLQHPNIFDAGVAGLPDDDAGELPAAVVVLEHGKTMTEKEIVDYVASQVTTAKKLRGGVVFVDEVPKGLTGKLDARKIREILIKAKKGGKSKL

SMILES | Substrate specificity for luciferase compared with that of dATPαS (luciferase; FIG. 7) | Substrate specificity (S) for luciferase, relative to that of ATP (luciferase) | Sequence analysis result as substitute for dATP (Sequence S1)
Nc1ncnc2c1c(/C=C/C(=O)NCCc1ccncc1)cn2[C@H]1CC(O)[C@@H](COP(=O)(O)OP(=O)(O)OP(=O)(O)O)O1 (some centres unmarked) [A3d] | about one order higher | 1/1000 | can be used for a nucleotide sequence analysis
Nc1ncnc2c1ncn2[C@H]1C[C@H](O)[C@@H](COP(O)(=S)OP(=O)(O)OP(=O)(O)O)O1 (some centres unmarked) [dATPαS] | – | 1/10000 | can be used for a nucleotide sequence analysis

— patent US8853373B2, “Method and reagent for gene sequence analysis” (Hitachi, Ltd., priority 2009, dated 2014)
